Experimental data taken from patent publication US5789434A, “Derivatives of substituted 4-biarylbutyric acid as matrix metalloprotease inhibitors” (priority 1995, dated 1998).
Where a name gives a salt, the structure may show the parent alone.

Tests used:
[1] = target: T1, MMP-9 (Homo sapiens, UniProt P14780); experiment: Thiopeptilide MMP-9 Inhibition Assay; assay type: biochemical; settings: for IC50: pH 6.5, x (n) = average of n determinations, read-out: MMP-9: Thiopep. IC50; for inhibition at 5 µM: read-out: MMP-9: Thiopep. % inhibition
T1 construct: from tissue; host or cells: human polymorphonuclear leukocytes (PMN) from whole blood (New York Blood Center), PMA-stimulated supernatant

[2] = target: T2, MMP-3 (Homo sapiens, UniProt P08254); experiment: Primary Thiopeptilide MMP-3 Inhibition Assay; assay type: biochemical; settings: for IC50: pH 6.5, 13 nM stromelysin, x (n) = average of n determinations, read-out: MMP-3 Thiopep. IC50; for inhibition at 5 µM: read-out: MMP-3 Thiopep. % inhibition
T2 construct: Truncated Prostromelysin-257 was expressed in a soluble form in E.coli; made in house; host or cells: E. coli
T2 sequence (P08254 100-274 limits assumed): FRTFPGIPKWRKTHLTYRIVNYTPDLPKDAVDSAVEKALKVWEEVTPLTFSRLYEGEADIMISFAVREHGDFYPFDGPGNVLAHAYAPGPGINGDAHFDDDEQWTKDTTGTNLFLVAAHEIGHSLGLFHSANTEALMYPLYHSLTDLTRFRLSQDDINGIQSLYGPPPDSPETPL
Method: Enzyme: recombinant stromelysin expressed in E.coli and purified as described above. […] The protocols for the assay of compounds as stromelysin inhibitors was the same as that used for MMP-9 except that the assay buffer was 50 mM MES, pH 6.5 containing 150 mM NaCl, 10 mM CaCl2, 0.005% Brij, and 1% DMSO.

T1 sequence (P14780 107-707 limits assumed): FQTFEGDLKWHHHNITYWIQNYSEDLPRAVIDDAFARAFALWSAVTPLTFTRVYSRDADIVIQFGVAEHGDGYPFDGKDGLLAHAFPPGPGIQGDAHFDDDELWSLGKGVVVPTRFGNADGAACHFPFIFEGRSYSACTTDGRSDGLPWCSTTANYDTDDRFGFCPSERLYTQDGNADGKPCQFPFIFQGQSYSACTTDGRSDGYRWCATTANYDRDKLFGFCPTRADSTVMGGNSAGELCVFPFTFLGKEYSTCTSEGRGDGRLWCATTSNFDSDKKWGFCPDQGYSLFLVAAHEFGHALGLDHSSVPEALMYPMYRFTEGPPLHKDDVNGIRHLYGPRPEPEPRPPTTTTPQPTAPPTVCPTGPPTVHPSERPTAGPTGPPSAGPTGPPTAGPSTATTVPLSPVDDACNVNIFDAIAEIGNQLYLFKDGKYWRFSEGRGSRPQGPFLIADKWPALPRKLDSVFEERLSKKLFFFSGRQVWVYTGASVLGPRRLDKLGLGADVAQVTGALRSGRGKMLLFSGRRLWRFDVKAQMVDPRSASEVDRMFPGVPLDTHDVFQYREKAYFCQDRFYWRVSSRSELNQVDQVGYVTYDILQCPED

Row | Structure (SMILES) | IC50 [1] | IC50 [2] | inhibition at 5 µM [1] | inhibition at 5 µM [2]
1 | C[C@@H](C(=O)O)[C@@H](C)C(=O)c1ccc(-c2ccc(Cl)cc2)cc1 (relative stereo) [Example 283, [1,1'-Biphenyl]-4-butanoic acid, 4'-chloro-α,β-dimethyl-γ-oxo-, (R*,R*)-] | 7 µM | 2.4 µM |  | 
2 | C[C@H](C(=O)c1ccc(-c2ccc(Cl)cc2)cc1)[C@@H](C)C(=O)O (relative stereo) [Example 284, [1,1'-Biphenyl]-4-butanoic acid, 4'-chloro-α,β-dimethyl-γ-oxo-, (R*,S*)-] |  |  | 1% | 10%
3 | O=C(O)[C@@H]1CCCC[C@H]1C(=O)c1ccc(-c2ccc(Cl)cc2)cc1 (relative stereo) [Example 285, Cyclohexanecarboxylic acid, 2-[(4'-chloro[1,1'-biphenyl]-4-yl)carbonyl]-, trans-] |  | 2.5 µM | 21% | 
4 | O=C(c1ccc(-c2ccc(Cl)cc2)cc1)[C@H]1CCCC[C@H]1C(=O)O (relative stereo) [Example 286, Cyclohexanecarboxylic acid, 2-[(4'-chloro[1,1'-biphenyl]-4-yl)carbonyl]-, trans-] |  |  | 0% | 19%
5 | O=C(c1ccc(-c2ccc(Cl)cc2)cc1)[C@H]1CCC[C@H]1C(=O)O (relative stereo) [Example 288, Cyclopentanecarboxylic acid, 2-[(4'-chloro[1,1'-biphenyl]-4-yl)carbonyl]-, cis-] |  |  | 46% | 40%
6 | O=C(O)[C@@H]1CCC[C@H]1C(=O)c1ccc(-c2ccc(Cl)cc2)cc1 (relative stereo) [Example 289, Cyclopentanecarboxylic acid, 2-[(4'-chloro[1,1'-biphenyl]-4-yl)carbonyl]-, trans-] | 0.91 µM | 0.348 µM |  | 
7 | O=C(c1ccc(-c2ccc(Cl)cc2)cc1)[C@H]1CC[C@H]1C(=O)O (relative stereo) [Example 290, Cyclobutanecarboxylic acid, 2-[(4'-chloro[1,1'-biphenyl]-4-yl)carbonyl]-, cis-] |  |  | 15% | 35%
8 | O=C(c1ccc(-c2ccc(Cl)cc2)cc1)[C@H]1C[C@H]1C(=O)O (relative stereo) [Example 292, Cyclopropanecarboxylic acid, 2-[(4'-chloro[1,1'-biphenyl]-4-yl)carbonyl]-, cis-, reference compound] |  |  | 12% | 21%
9 | O=C(O)[C@@H]1C[C@H]1C(=O)c1ccc(-c2ccc(Cl)cc2)cc1 (relative stereo) [Example 293, Cyclopropanecarboxylic acid, 2-[(4'-chloro[1,1'-biphenyl]-4-yl)carbonyl]-, trans-, reference compound] |  |  | 0% | 16%
10 | O=C(O)[C@H]1[C@@H](Sc2ccccc2)CC[C@@H]1C(=O)c1ccc(-c2ccc(Cl)cc2)cc1 (relative stereo) [Example 295] | 0.6 µM | 0.099 µM |  | 
11 | COC(=O)c1ccccc1S[C@H]1CC[C@H](C(=O)c2ccc(-c3ccc(Cl)cc3)cc2)[C@H]1C(=O)O (relative stereo) [Example 298, trans-5-[4-(4-chlorophenyl)phenylcarbonyl]-cis-2-(2-methoxycarbonylphenylthio)cyclopentanecarboxylic acid] | 0.85 µM | 0.05 µM |  | 
12 | O=C(O)[C@H]1[C@@H](Sc2ccc(F)cc2)CC[C@@H]1C(=O)c1ccc(-c2ccc(Cl)cc2)cc1 (relative stereo) [Example 303, Cyclopentanecarboxylic acid, 2-[(4'-chloro[1,1'-biphenyl]-4-yl)carbonyl]-5-[(4-fluorophenyl)thio]-, (1α,2β,5α)-] | 1.4 µM | 0.31 µM |  | 
13 | CC(C)CC1CC(c2ccc(-c3ccc(Cl)cc3)cc2)OC1=O (centres unmarked) [Example 35, 2(3H)-Furanone, 5-(4'-chloro[1,1'-biphenyl]-4-yl)dihydro-3-(2-methylpropyl)-, reference compound] |  |  |  | 0%
14 | CCCCCCCC(CC(=O)c1ccc(-c2ccc(Cl)cc2)cc1)C(=O)O (stereo not drawn) [Example 122, [1,1'-Biphenyl]-4-butanoic acid, 4'-chloro-α-hepty-γ-oxo-] |  | 0.403 µM |  | 
15 | CCCCCCCCCCC(CC(=O)c1ccc(-c2ccc(Cl)cc2)cc1)C(=O)O (stereo not drawn) [Example 123, [1,1'-Biphenyl]-4-butanoic acid, 4'-chloro-α-decyl-γ-oxo-] |  |  |  | 43%
16 | O=C(CC(CCc1ccccc1I)C(=O)O)c1ccc(-c2ccc(Cl)cc2)cc1 (stereo not drawn) [Example 126, [1,1'-Biphenyl]-4-butanoic acid, 4'-chloro-α-[2-(2-iodophenyl)ethyl]-γ-oxo-] |  | 0.6 µM |  | 
17 | COC(=O)c1ccccc1CCC(CC(=O)c1ccc(-c2ccc(Cl)cc2)cc1)C(=O)O (stereo not drawn) [Example 142, [1,1'-Biphenyl]-4-butanoic acid, 4'-chloro-α-[2-[2-(methoxycarbonyl)phenyl]ethyl]-γ-oxo-] |  | 0.31 µM |  | 
18 | O=C(C[C@@H](CSc1ccccc1)C(=O)O)c1ccc(-c2ccc(Cl)cc2)cc1 [Example 198, 4-[4-(4-chlorophenyl)phenyl]-4-oxo-2R-(phenylthiomethyl)butanoic acid] |  |  | 21% | 
19 | O=C(CC(CSc1cccc(C(F)(F)F)c1)C(=O)O)c1ccc(-c2ccc(Cl)cc2)cc1 (stereo not drawn) [Example 236, [1,1'-Biphenyl]-4-butanoic acid, 4'-chloro-γ-oxo-α-[[[3-(trifluoromethyl)phenyl]thio]methyl]-] |  | 2 µM |  | 
20 | COC(=O)c1ccc(SCC(CC(=O)c2ccc(-c3ccc(Cl)cc3)cc2)C(=O)O)cc1 (stereo not drawn) [Example 237, [1,1'-Biphenyl]-4-butanoic acid, 4'-chloro-α-[[[4-(methoxycabonyl)phenyl]thio]methyl]-γ-oxo-] |  | 2 µM |  | 
21 | O=C(O)Cc1ccc(SCC(CC(=O)c2ccc(-c3ccc(Cl)cc3)cc2)C(=O)O)cc1 (stereo not drawn) [Example 238, [1,1'-Biphenyl]-4-butanoic acid, α-[[[4-(carboxymethyl)phenyl]thio]methyl]-4'-chloro-γ-oxo-] |  | 0.92 µM |  | 
22 | CC(CC(=O)c1ccc(-c2ccc(Cl)cc2)cc1)(Sc1ccccc1)C(=O)O (stereo not drawn) [Example 245, [1,1'-Biphenyl]-4-butanoic acid, 4'-chloro-α-methyl-γ-oxo-α-(phenylthio)-] |  |  |  | 55%
23 | O=C(C[C@@H](C[S+]([O-])c1ccccc1)C(=O)O)c1ccc(-c2ccc(Cl)cc2)cc1 (stereo partly drawn) [Example 246, [1,1'-Biphenyl]-4-butanoic acid, 4'-chloro-γ-oxo-α-[(phenylsulfinyl)methyl]-, stereoisomer] |  |  |  | 14%
24 | O=C(C[C@H](C[S+]([O-])c1ccccc1)C(=O)O)c1ccc(-c2ccc(Cl)cc2)cc1 (stereo partly drawn) [Example 248, [1,1'-Biphenyl]-4-butanoic acid, 4'-chloro-γ-oxo-α-[(phenylsulfinyl)methyl]-, stereoisomer] |  | 0.83 µM |  | 
25 | O=C(C[C@H](C[S+]([O-])c1ccccc1)C(=O)O)c1ccc(-c2ccc(Cl)cc2)cc1 (stereo partly drawn) [Example 249, [1,1'-Biphenyl]-4-butanoic acid, 4'-chloro-γ-oxo-α-[(phenylsulfinyl)methyl]-, stereoisomer] |  | 1.6 µM |  | 
26 | CCN(CC)CCC(CC(=O)c1ccc(-c2ccc(Cl)cc2)cc1)C(=O)O (stereo not drawn) [Example 264, [1,1'-Biphenyl]-4-butanoic acid, 4'-chloro-α-[2-(diethylamino)ethyl]-γ-oxo-, hydrochloride] |  |  |  | 48%
